Data: patent publication US8410302B2, “Methoxyimino compounds and fungicide composition comprising same” (Kyung Nong Corporation, priority 2007, dated 2013)
Read-outs that look alike come from different tables or passages of the source.

Legend:
Rhizoctonia solani AG-1 = experiment: Fungicidal activity against rice sheath blight (RSB) disease, control value; settings: Rhizoctonia solani, AG1, in Oryza sativa, read-out: RSB control value (C.V.)
Erysiphae graminis = experiment: Fungicidal activity against barley powdery mildew (BPM) disease, control value; format: in vivo; settings: 168 h, read-out: BPM control value (C.V.)
Phytophthora infestans = experiment: whole plant or invertebrate; format: in vivo; settings: Phytophthora infestans, in Solanum lycopersicum, read-out: TLB control value (C.V.)
Botrytis cinerae = experiment: Fungicidal activity against cucumber gray mold rot (CGM) disease, control value; format: in vivo; settings: Botrytis, read-out: CGM control value (C.V.)
Procedure: Botrytis cinerae, which was isolated from cucumber infected thereby, was inoculated on a potato agar medium (PEC) and cultured under a 12L/12D cycle at 25° C. for 15 days to form spore. The spores were scraped, filtered through a gauze and then suspended in Potato Dextrose broth at a concentration of 1×10^6 spore/ml. The spore suspension was sprayed on a cucumber plant having one leaf. The cucumber plant was held in a humidified room at 20° C. for 3 days. L.A. on a leaf was measured to calculate a C.V.

[1] = system: Pyricularia oryzae Carvara KA301; experiment: whole plant or invertebrate; format: in vivo; settings: Pyricularia oryzae, read-out: RCB control value (C.V.)
Puccinia recondita = experiment: Fungicidal activity against wheat leaf rust (WLR) disease, control value; format: in vivo; settings: read-out: WLR control value (C.V.)
[2] = Hordeum vulgare, barley powdery mildew

## CO/N=C(/C(=O)OC)c1ccccc1COc1c(C)cccc1C=C(Cl)Cl [Example 49, methyl-(E)-2-(2-((2-(2,2-dichlorovinyl)-6-methylphenoxy)methyl)phenyl)-2-methoxyiminoacetate]
Rhizoctonia solani AG-1
  pest or weed control at 2 ppm: 95%
  pest or weed control at 10 ppm: 98%
  pest or weed control at 50 ppm: 100%
  pest or weed control at 100 ppm: 100%
Erysiphae graminis; [2]
  pest or weed control at 2 ppm: 100%
  pest or weed control at 10 ppm: 100%
  pest or weed control at 50 ppm: 100%
  pest or weed control at 100 ppm: 100%
Phytophthora infestans
  pest or weed control at 2 ppm: 97%
  pest or weed control at 10 ppm: 99%
  pest or weed control at 50 ppm: 100%
  pest or weed control at 100 ppm: 100%
Botrytis cinerae; cucumber gray mold rot
  pest or weed control at 100 ppm: 30%
[1]
  pest or weed control at 2 ppm: 93%
  pest or weed control at 10 ppm: 100%
  pest or weed control at 50 ppm: 100%
  pest or weed control at 100 ppm: 100%
Puccinia recondita; wheat leaf rust
  pest or weed control at 2 ppm: 100%
  pest or weed control at 10 ppm: 100%
  pest or weed control at 50 ppm: 100%
  pest or weed control at 100 ppm: 100%

## CO/N=C(/C(=O)OC)c1ccccc1COc1cccc(C=C(Cl)Cl)c1 [Example 1, methyl-(E)-2-(2-((3-(2,2-dichlorovinyl)phenoxy)methyl)phenyl)-2-methoxyiminoacetate]
Rhizoctonia solani AG-1
  pest or weed control at 100 ppm: 45%
Erysiphae graminis; [2]
  pest or weed control at 2 ppm: 100%
  pest or weed control at 10 ppm: 100%
  pest or weed control at 50 ppm: 100%
  pest or weed control at 100 ppm: 100%
Phytophthora infestans
  pest or weed control at 2 ppm: 80%
  pest or weed control at 10 ppm: 92%
  pest or weed control at 50 ppm: 100%
  pest or weed control at 100 ppm: 100%
Botrytis cinerae; cucumber gray mold rot
  pest or weed control at 100 ppm: 29%
[1]
  pest or weed control at 2 ppm: 13%
  pest or weed control at 10 ppm: 50%
  pest or weed control at 50 ppm: 92%
  pest or weed control at 100 ppm: 100%
Puccinia recondita; wheat leaf rust
  pest or weed control at 2 ppm: 98%
  pest or weed control at 10 ppm: 100%
  pest or weed control at 50 ppm: 100%
  pest or weed control at 100 ppm: 100%

## CNC(=O)/C(=N/OC)c1ccccc1COc1ccc(C)cc1C=C(Br)Br [Example 70, (E)-2-(2-((2-(2,2-dibromovinyl)-4-methylphenoxy)methyl)phenyl)-2-methoxyimino-N-methylacetamide]
Rhizoctonia solani AG-1
  pest or weed control at 2 ppm: 100%
  pest or weed control at 10 ppm: 100%
  pest or weed control at 50 ppm: 100%
  pest or weed control at 100 ppm: 100%
Erysiphae graminis
  pest or weed control at 2 ppm: 100%
  pest or weed control at 10 ppm: 100%
  pest or weed control at 50 ppm: 100%
  pest or weed control at 100 ppm: 100%
Phytophthora infestans
  pest or weed control at 10 ppm: 35%
  pest or weed control at 50 ppm: 90%
  pest or weed control at 100 ppm: 100%
Botrytis cinerae
  pest or weed control at 100 ppm: 50%
[1]
  pest or weed control at 2 ppm: 100%
  pest or weed control at 10 ppm: 100%
  pest or weed control at 50 ppm: 100%
  pest or weed control at 100 ppm: 100%
Puccinia recondita; Puccinia recondita
  pest or weed control at 2 ppm: 100%
  pest or weed control at 10 ppm: 100%
  pest or weed control at 50 ppm: 100%
  pest or weed control at 100 ppm: 100%

## CCOc1cc(C=C(Br)Br)ccc1OCc1ccccc1/C(=N\OC)C(=O)OC [Example 83, methyl-(E)-2-(2-((4-(2,2-dibromovinyl)-2-ethoxyphenoxy)methyl)phenyl)-2-methoxyiminoacetate]
Rhizoctonia solani AG-1
  pest or weed control at 2 ppm: 75%
  pest or weed control at 10 ppm: 98%
  pest or weed control at 50 ppm: 100%
  pest or weed control at 100 ppm: 100%
Erysiphae graminis
  pest or weed control at 2 ppm: 95%
  pest or weed control at 10 ppm: 100%
  pest or weed control at 50 ppm: 100%
  pest or weed control at 100 ppm: 100%
Phytophthora infestans
  pest or weed control at 2 ppm: 70%
  pest or weed control at 10 ppm: 90%
  pest or weed control at 50 ppm: 98%
  pest or weed control at 100 ppm: 100%
Botrytis cinerae
  pest or weed control at 100 ppm: 50%
[1]
  pest or weed control at 2 ppm: 50%
  pest or weed control at 10 ppm: 90%
  pest or weed control at 50 ppm: 100%
  pest or weed control at 100 ppm: 100%
Puccinia recondita; Puccinia recondita
  pest or weed control at 2 ppm: 95%
  pest or weed control at 10 ppm: 100%
  pest or weed control at 50 ppm: 100%
  pest or weed control at 100 ppm: 100%

## CO/N=C(/C(=O)OC)c1ccccc1COc1ccc(C=C(Cl)Br)cc1 [Example 17, methyl-(2E)-2-(2-((4-(2-bromo-2-chlorovinyl)phenoxy)methyl)phenyl)-2-methoxyiminoacetate]
Rhizoctonia solani AG-1
  pest or weed control at 100 ppm: 90%
Erysiphae graminis; [2]
  pest or weed control at 2 ppm: 35%
  pest or weed control at 10 ppm: 90%
  pest or weed control at 50 ppm: 93%
  pest or weed control at 100 ppm: 95%
Phytophthora infestans
  pest or weed control at 10 ppm: 10%
  pest or weed control at 50 ppm: 90%
  pest or weed control at 100 ppm: 100%
Botrytis cinerae; cucumber gray mold rot
  pest or weed control at 100 ppm: 50%
[1]
  pest or weed control at 2 ppm: 70%
  pest or weed control at 10 ppm: 100%
  pest or weed control at 50 ppm: 100%
  pest or weed control at 100 ppm: 100%
Puccinia recondita; wheat leaf rust
  pest or weed control at 2 ppm: 100%
  pest or weed control at 10 ppm: 100%
  pest or weed control at 50 ppm: 100%
  pest or weed control at 100 ppm: 100%

## CNC(=O)/C(=N/OC)c1ccccc1COc1c(C)cccc1C=C(Cl)Cl [Example 50, (E)-2-(2-((2-(2,2-dichlorovinyl)-6-methylphenoxy)methyl)phenyl)-2-methoxyimino-N-methylacetamide]
Rhizoctonia solani AG-1
  pest or weed control at 2 ppm: 95%
  pest or weed control at 10 ppm: 98%
  pest or weed control at 50 ppm: 100%
  pest or weed control at 100 ppm: 100%
Erysiphae graminis; [2]
  pest or weed control at 2 ppm: 100%
  pest or weed control at 10 ppm: 100%
  pest or weed control at 50 ppm: 100%
  pest or weed control at 100 ppm: 100%
Phytophthora infestans
  pest or weed control at 2 ppm: 90%
  pest or weed control at 10 ppm: 99%
  pest or weed control at 50 ppm: 100%
  pest or weed control at 100 ppm: 100%
Botrytis cinerae; cucumber gray mold rot
  pest or weed control at 100 ppm: 20%
[1]
  pest or weed control at 2 ppm: 85%
  pest or weed control at 10 ppm: 98%
  pest or weed control at 50 ppm: 100%
  pest or weed control at 100 ppm: 100%
Puccinia recondita; wheat leaf rust
  pest or weed control at 2 ppm: 100%
  pest or weed control at 10 ppm: 100%
  pest or weed control at 50 ppm: 100%
  pest or weed control at 100 ppm: 100%

## CNC(=O)/C(=N/OC)c1ccccc1COc1ccc(F)cc1C=C(Cl)Cl [Example 56, (E)-2-(2-((2-(2,2-dichlorovinyl)-4-fluorophenoxy)methyl)phenyl)-2-methoxyimino-N-methylacetamide]
Rhizoctonia solani AG-1
  pest or weed control at 2 ppm: 95%
  pest or weed control at 10 ppm: 100%
  pest or weed control at 50 ppm: 100%
  pest or weed control at 100 ppm: 100%
Erysiphae graminis
  pest or weed control at 2 ppm: 100%
  pest or weed control at 10 ppm: 100%
  pest or weed control at 50 ppm: 100%
  pest or weed control at 100 ppm: 100%
Phytophthora infestans
  pest or weed control at 2 ppm: 95%
  pest or weed control at 10 ppm: 100%
  pest or weed control at 50 ppm: 100%
  pest or weed control at 100 ppm: 100%
Botrytis cinerae; 50 ppm
  pest or weed control at 50 ppm: 20%
Botrytis cinerae
  pest or weed control at 100 ppm: 65%
[1]
  pest or weed control at 2 ppm: 97%
  pest or weed control at 10 ppm: 100%
  pest or weed control at 50 ppm: 100%
  pest or weed control at 100 ppm: 100%
Puccinia recondita; Puccinia recondita
  pest or weed control at 2 ppm: 100%
  pest or weed control at 10 ppm: 100%
  pest or weed control at 50 ppm: 100%
  pest or weed control at 100 ppm: 100%

## CNC(=O)/C(=N/OC)c1ccccc1COc1ccc(C=C(Br)Br)cc1Br [Example 78, (E)-2-(2-((2-bromo-4-(2,2-dibromovinyl)phenoxy)methyl)phenyl)-2-methoxyimino-N-methylacetamide]
Rhizoctonia solani AG-1
  pest or weed control at 2 ppm: 65%
  pest or weed control at 10 ppm: 98%
  pest or weed control at 50 ppm: 100%
  pest or weed control at 100 ppm: 100%
Erysiphae graminis
  pest or weed control at 2 ppm: 90%
  pest or weed control at 10 ppm: 100%
  pest or weed control at 50 ppm: 100%
  pest or weed control at 100 ppm: 100%
Phytophthora infestans
  pest or weed control at 2 ppm: 70%
  pest or weed control at 10 ppm: 90%
  pest or weed control at 50 ppm: 98%
  pest or weed control at 100 ppm: 100%
Botrytis cinerae
  pest or weed control at 100 ppm: 40%
[1]
  pest or weed control at 2 ppm: 40%
  pest or weed control at 10 ppm: 90%
  pest or weed control at 50 ppm: 98%
  pest or weed control at 100 ppm: 100%
Puccinia recondita; Puccinia recondita
  pest or weed control at 2 ppm: 95%
  pest or weed control at 10 ppm: 98%
  pest or weed control at 50 ppm: 100%
  pest or weed control at 100 ppm: 100%

## CO/N=C(/C(=O)OC)c1ccccc1COc1cc(C=C(Br)Br)ccc1OC [Example 71, methyl-(E)-2-(2-((5-(2,2-dibromovinyl)-2-methoxyphenoxy)methyl)phenyl)-2-methoxyiminoacetate]
Rhizoctonia solani AG-1
  pest or weed control at 2 ppm: 65%
  pest or weed control at 10 ppm: 98%
  pest or weed control at 50 ppm: 100%
  pest or weed control at 100 ppm: 100%
Erysiphae graminis
  pest or weed control at 2 ppm: 95%
  pest or weed control at 10 ppm: 100%
  pest or weed control at 50 ppm: 100%
  pest or weed control at 100 ppm: 100%
Phytophthora infestans
  pest or weed control at 2 ppm: 70%
  pest or weed control at 10 ppm: 90%
  pest or weed control at 50 ppm: 98%
  pest or weed control at 100 ppm: 100%
Botrytis cinerae
  pest or weed control at 100 ppm: 65%
[1]
  pest or weed control at 2 ppm: 30%
  pest or weed control at 10 ppm: 90%
  pest or weed control at 50 ppm: 100%
  pest or weed control at 100 ppm: 100%
Puccinia recondita; Puccinia recondita
  pest or weed control at 2 ppm: 95%
  pest or weed control at 10 ppm: 100%
  pest or weed control at 50 ppm: 100%
  pest or weed control at 100 ppm: 100%
